The results in this text go back to US9249123B2, “Pyridinones/pyrazinones, method of making, and method of use thereof” (Genentech, Inc., priority 2010, dated 2016).

In general, IC50 refers to the concentration that gives 50% inhibition. Read a low IC50 as inhibition by little substance. By EC50 is commonly meant the concentration that produces a half-maximal response.

Sequence of full length human wildtype Btk (Q06187 whole entry): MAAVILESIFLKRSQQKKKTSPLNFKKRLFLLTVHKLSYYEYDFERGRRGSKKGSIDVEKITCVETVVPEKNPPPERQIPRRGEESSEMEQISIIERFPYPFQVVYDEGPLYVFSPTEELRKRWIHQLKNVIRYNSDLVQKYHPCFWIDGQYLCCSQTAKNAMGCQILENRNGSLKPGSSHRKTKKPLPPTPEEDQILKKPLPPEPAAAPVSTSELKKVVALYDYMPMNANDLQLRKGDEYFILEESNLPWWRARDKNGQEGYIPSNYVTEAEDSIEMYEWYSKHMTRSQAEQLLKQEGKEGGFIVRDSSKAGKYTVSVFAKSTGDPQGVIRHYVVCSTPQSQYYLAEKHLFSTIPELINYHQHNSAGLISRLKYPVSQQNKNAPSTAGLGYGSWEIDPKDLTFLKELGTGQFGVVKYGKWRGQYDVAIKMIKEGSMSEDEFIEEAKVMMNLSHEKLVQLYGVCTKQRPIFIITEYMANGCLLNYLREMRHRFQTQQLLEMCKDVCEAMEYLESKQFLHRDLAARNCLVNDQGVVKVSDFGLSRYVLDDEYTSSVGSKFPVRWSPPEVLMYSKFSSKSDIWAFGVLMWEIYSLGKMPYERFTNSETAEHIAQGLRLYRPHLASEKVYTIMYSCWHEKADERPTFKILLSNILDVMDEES

One experiment concerns the target full length human wildtype Btk (Homo sapiens (Human), UniProt Q06187). Description: Biochemical Btk Assay.
Conditions: not given
The method, then:
Formula I compounds were tested by a standard biochemical Btk Kinase Assay (Example 901). A generalized procedure for a standard biochemical Btk Kinase Assay that can be used to test Formula I compounds is as follows. […] A master mix plus Btk enzyme is prepared containing 1× Cell Signaling kinase buffer, 0.5 μM PTK Biotinylated peptide substrate 2, 0.01% BSA, and 100 ng/well (0.06 mU/well) Btk enzyme. Btk enzyme is prepared as follows: full length human wildtype Btk (accession number NM-000061) with a C-terminal V5 and 6×His tag was subcloned into pFastBac vector for making baculovirus carrying this epitope-tagged Btk. Generation of baculovirus is done based on Invitrogen's instructions detailed in its published protocol “Bac-to-Bac Baculovirus Expression Systems” (Cat. Nos. 10359-016 and 10608-016). […] The Btk protein is then purified to homogeneity using Ni-NTA column. The purity of the final protein preparation is greater than 95% based on the sensitive Sypro-Ruby staining. A solution of 200 μM ATP is prepared in water and adjusted to pH7.4 with 1N NaOH. A quantity of 1.25 μL of compounds in 5% DMSO is transferred to a 96-well ½ area Costar polystyrene plate. Compounds are tested singly and with an 11-point dose-responsive curve (starting concentration is 10 μM; 1:2 dilution). A quantity of 18.75 μL of master mix minus enzyme (as a negative control) and master mix plus enzyme is transferred to appropriate wells in 96-well ½ area costar polystyrene plate. 5 μL of 200 μM ATP is added to that mixture in the 96-well ½ area Costar polystyrene plate for final ATP concentration of 40 μM. The reaction is allowed to incubate for 1 hour at room temperature. The reaction is stopped with Perkin Elmer 1× detection buffer containing 30 mM EDTA, 20 nM SA-APC, and 1 nM PT66 Ab. The plate is read using time-resolved fluorescence with a Perkin Elmer Envision using excitation filter 330 nm, emission filter 665 nm, and 2nd emission filter 615 nm. IC50 values are subsequently calculated. Alternatively, the Lanthascreen assay can be used to evaluate Btk activity through quantification of its phosphorylated peptide product. The FRET (Fluorescence Resonance Energy Transfer) that occurs between the fluorescein on the peptide product and the terbium on the detection antibody decreases with the addition of inhibitors of Btk that reduce the phosphorylation of the peptide. […] The reaction is initiated by the addition of ATP to 25 uM (Km of ATP). After incubation for 60 minutes at room temperature, the reaction is stopped by the addition of a final concentration of 2 nM Tb-PY20 detection antibody in 60 mM EDTA for 30 minutes at room temperature. Detection is determined on a Perkin Elmer Envision with 340 nm excitation and emission at 495 nm and 520 nm. Exemplary Btk inhibition IC50 values are in Tables and 2.
`Cc1c(-c2cn(C)c(=O)c(Nc3ccc(C4NCCN(C)C4=O)cc3)n2)cccc1N1Cc2cc(C(C)(C)C)sc2C1=O` (stereo not drawn) [Compound 102, 2-tert-butyl-5-(2-methyl-3-(4-methyl-6-(4-(4-methyl-3-oxopiperazin-2-yl)phenylamino)-5-oxo-4,5-dihydro-pyrazin-2-yl)phenyl)-4H-thieno[2,3-c]pyrrol-6(5H)-one] yielded an IC50 of 11.5 nM.
Regarding `Cc1c(-c2cn(C)c(=O)c(Nc3ccc(C4C(=O)NCCN4C)cc3)n2)cccc1N1Cc2cc(C(C)(C)C)sc2C1=O` (stereo not drawn) [Compound 104, 2-tert-butyl-5-(2-methyl-3-(4-methyl-6-(4-(1-methyl-3-oxopiperazin-2-yl)phenylamino)-5-oxo-4,5-dihydropyrazin-2-yl)phenyl)-4H-thieno[2,3-c]pyrrol-6(5H)-one], the 50% inhibitory concentration (IC50) came out at 95 nM.
For the compound `CN1CCN(C)[C@@H](c2ccc(Nc3nc(-c4ccc(F)c(N5Cc6cc(C(C)(C)C)sc6C5=O)c4F)cn(C)c3=O)cc2)C1=O` [Compound 130, 5-(3-{2-tert-butyl-6-oxo-4H,5H,6H-thieno[2,3-c]pyrrol-5-yl}-2,4-difluorophenyl)-3-({4-[(2S)-1,4-dimethyl-3-oxopiperazin-2-yl]phenyl]amino)-1-methyl-1,2-dihydropyrazin-2-one], half-maximal inhibition (IC50) was put at 33.7 nM.
Take `CN1CCN(C)[C@@H](c2ccc(Nc3nc(-c4ccc(F)c(N5Cc6cc(C(C)(C)C)sc6C5=O)c4)cn(C)c3=O)cc2)C1=O` [Compound 131, 5-(3-{2-tert-butyl-6-oxo-4H,5H,6H-thieno[2,3-c]pyrrol-5-yl}-4-fluorophenyl)-3-({4-[(2S)-1,4-dimethyl-3-oxopiperazin-2-yl]phenyl}amino)-1-methyl-1,2-dihydropyrazin-2-one]: the IC50 is 47.4 nM.
For `Cc1c(-c2cn(C)c(=O)c(Nc3ccc(C4C(=O)NCCN4C)cc3)n2)cccc1N1Cc2cc(C(C)(C)C)sc2C1=O` (stereo not drawn) [Compound 134, 5-(3-{2-tert-butyl-6-oxo-4H,5H,6H-thieno[2,3-c]pyrrol-5-yl}-2-methylphenyl)-1-methyl-3-{[4-(1-methyl-3-oxopiperazin-2-yl)phenyl]amino}-1,2-dihydropyrazin-2-one], the IC50 was found to be 24.7 nM.

A further experiment concerns CD86 surface expression on CD19+/7AAD- total mouse splenocytes stimulated with IgM. The experiment is described as follows: CD86 Inhibition Assay. Particulars: Splenocyte; Balb/c mouse splenocytes, IgM stimulation, 24 hr. The format is cell-based. The method, then:
A CD86 Inhibition assay can be conducted on Formula I compounds for the inhibition of B cell activity using total mouse splenocytes purified from spleens of 8-16 week old Balb/c mice (Example 905).
A generalized procedure for a standard assay for the inhibition of B cell activity that can be used to test Formula I compounds is as follows. Total mouse splenocytes are purified from spleens of 8-16 week old Balb/c mice by red blood cell lysis (BD Pharmingen #555899). Testing compounds are diluted to 0.5% DMSO and incubated with 1.25×10^6 splenocytes in a final volume of 200 μl in flat clear bottom plates (Falcon 353072) for 60 min at 37° C. Cells are then stimulated with the addition of 15 μg/ml IgM (Jackson ImmunoResearch 115-006-020), and incubated for 24 hr at 37° C., 5% CO2. Following the 24 hr incubation, cells are transferred to conical bottom clear 96-well plates and pelleted by centrifugation at 1200×g×5 min. Cells are preblocked by CD16/CD32 (BD Pharmingen #553142), followed by triple staining with CD19-FITC (BD Pharmingen #553785), CD86-PE (BD Pharmingen #553692), and 7AAD (BD Pharmingen #51-68981E). Cells are sorted on a BD FACSCalibur and gated on the CD19^+/7AAD^− population. The levels of CD86 surface expression on the gated population is measured versus test compound concentration. Exemplary results are in Table 3.
`Cc1c(-c2cn(C)c(=O)c(Nc3ccc(C4C(=O)NCCN4C)cc3)n2)cccc1N1Cc2cc(C(C)(C)C)sc2C1=O` (stereo not drawn) [Compound 134, 5-(3-{2-tert-butyl-6-oxo-4H,5H,6H-thieno[2,3-c]pyrrol-5-yl}-2-methylphenyl)-1-methyl-3-{[4-(1-methyl-3-oxopiperazin-2-yl)phenyl]amino}-1,2-dihydropyrazin-2-one] displayed an EC50 of 1900 nM.
